Data reported in patent US12723063B2, “GIPR-agonist compounds” (Eli Lilly and Company, priority 2019, dated 2026).
*1 amine or outer side, *2 acyl side, *3 side chain or, on linkers, in order; H or OH if unused. Where a SMILES comes first, the peptide text is derived from it. Side-chain parts run from the residue outwards. [ ]: non-standard residue; d: D form. The star is where a group is joined. C20 diacid = O=C(O)CCCCCCCCCCCCCCCCCCC(=O)*; C18 diacid = O=C(O)CCCCCCCCCCCCCCCCC(=O)*; αMePhe(2-F) = C[C@](N)(Cc1ccccc1F)C(=O)O; γGlu = O=C(O)[C@H](CCC(=O)[*:2])N[*:1]; αMeY = C[C@](N)(Cc1ccc(O)cc1)C(=O)O; 4Pal = N[C@@H](Cc1ccncc1)C(=O)O; αMeL = CC(C)C[C@](C)(N)C(=O)O; Orn = NCCC[C@H](N)C(=O)O; AEEA = NCCOCCOCC(=O)O; Aib = CC(C)(N)C(=O)O

Columns and labels:
human GcgR = target: T1, human GcgR (Homo sapiens, UniProt P47871); assay: [125I]-Glucagon binding, SPA with WGA beads, 0.1% bacitracin; conditions: geometric mean, read-out: hGcgR Ki
T1 construct: expressed in transfected cells; crude membranes
Outline: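 SPA competition binding with WGA beads on crude membranes from HEK293 cells stably expressing hGcgR. Buffer: 25 mM HEPES pH 7.4, 2.5 mM CaCl2, 1 mM MgCl2, 0.1% bacitracin, 0.003% Tween-20; 10-point 3-fold dilutions, NSB with 1 μM Gcg.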

human GIPR = target: T2, human GIPR (Homo sapiens, UniProt P48546); assay: [125I]-GIP binding, SPA with WGA beads, 0.1% bacitracin; conditions: geometric mean, read-out: hGIPR Ki
T2 construct: expressed in transfected cells; crude membranes
T2 sequence (P48546 22-466): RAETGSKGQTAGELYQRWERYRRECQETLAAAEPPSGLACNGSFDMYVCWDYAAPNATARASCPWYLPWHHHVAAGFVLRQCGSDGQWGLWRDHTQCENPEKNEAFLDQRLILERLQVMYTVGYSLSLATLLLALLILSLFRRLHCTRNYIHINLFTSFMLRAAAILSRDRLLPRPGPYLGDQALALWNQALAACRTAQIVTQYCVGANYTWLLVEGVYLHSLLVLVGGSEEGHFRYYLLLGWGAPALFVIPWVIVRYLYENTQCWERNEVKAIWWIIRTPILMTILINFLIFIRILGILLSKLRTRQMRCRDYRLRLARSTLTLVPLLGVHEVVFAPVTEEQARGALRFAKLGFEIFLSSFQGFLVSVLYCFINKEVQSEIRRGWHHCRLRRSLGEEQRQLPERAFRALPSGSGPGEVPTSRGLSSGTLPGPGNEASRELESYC
Outline: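 Ki values are geometric means (SEM, n independent days), derived from four-parameter nonlinear regression of IC50. Membranes came from hGIPR-expressing CHO cells.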

T1 sequence (P47871 26-477): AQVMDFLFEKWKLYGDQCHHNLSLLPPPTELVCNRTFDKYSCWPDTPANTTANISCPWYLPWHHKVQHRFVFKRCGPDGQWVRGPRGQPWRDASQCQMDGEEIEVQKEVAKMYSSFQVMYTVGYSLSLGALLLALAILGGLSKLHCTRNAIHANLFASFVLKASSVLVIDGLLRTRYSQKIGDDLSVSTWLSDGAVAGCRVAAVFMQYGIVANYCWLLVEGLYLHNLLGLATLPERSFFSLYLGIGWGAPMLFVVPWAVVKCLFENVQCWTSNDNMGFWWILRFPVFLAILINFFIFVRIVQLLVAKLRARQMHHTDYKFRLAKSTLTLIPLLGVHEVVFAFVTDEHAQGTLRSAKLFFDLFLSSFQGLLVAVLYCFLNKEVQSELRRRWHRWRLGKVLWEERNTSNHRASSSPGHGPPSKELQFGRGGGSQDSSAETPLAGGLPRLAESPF

CC[C@H](C)[C@H](NC(=O)[C@H](CO)NC(=O)[C@H](Cc1ccc(O)cc1)NC(=O)[C@H](CC(=O)O)NC(=O)[C@H](CO)NC(=O)[C@@H](NC(=O)[C@H](Cc1ccccc1)NC(=O)[C@@H](NC(=O)CNC(=O)[C@H](CCC(=O)O)NC(=O)[C@@H](C)NC(=O)[C@@H](N)Cc1ccc(O)cc1)[C@@H](C)O)[C@@H](C)CC)C(=O)N[C@@H](CC(C)C)C(=O)N[C@@H](CC(C)C)C(=O)N[C@@H](CC(=O)O)C(=O)N[C@@H](CCCCN)C(=O)N[C@@H](CCCCNC(=O)COCCOCCNC(=O)COCCOCCNC(=O)CC[C@H](NC(=O)CCCCCCCCCCCCCCCCCCC(=O)O)C(=O)O)C(=O)N[C@@H](C)C(=O)N[C@@H](CCC(N)=O)C(=O)N[C@@H](CCC(N)=O)C(=O)N[C@@H](CC(=O)O)C(=O)N[C@@H](Cc1ccccc1)C(=O)N[C@H](C(=O)N[C@@H](CC(N)=O)C(=O)N[C@@H](Cc1c[nH]c2ccccc12)C(=O)N[C@@H](CC(C)C)C(=O)N[C@@H](CC(C)C)C(=O)N[C@@H](C)C(=O)N[C@@H](CCC(N)=O)C(=O)NCC(=O)N1CCC[C@H]1C(=O)N[C@@H](CO)C(=O)N[C@@H](CO)C(=O)NCC(=O)N[C@@H](C)C(=O)N1CCC[C@H]1C(=O)N1CCC[C@H]1C(=O)N1CCC[C@H]1C(=O)N[C@@H](CO)C(N)=O)C(C)C [Example 11] (H-Y[dA]EGTFISDYSILLDKK([AEEA-AEEA-γGlu-C20 diacid])AQQDFVNWLLAQGPSSGAPPPS-NH2)
Ki (human GcgR): 163 nM
Ki (human GIPR): 0.0584 nM

CC[C@H](C)[C@H](NC(=O)[C@H](CO)NC(=O)[C@H](Cc1ccc(O)cc1)NC(=O)[C@H](CC(=O)O)NC(=O)[C@H](CO)NC(=O)[C@@H](NC(=O)[C@H](Cc1ccccc1)NC(=O)[C@@H](NC(=O)CNC(=O)[C@H](CCC(=O)O)NC(=O)[C@@H](C)NC(=O)[C@@H](N)Cc1ccc(O)cc1)[C@@H](C)O)[C@@H](C)CC)C(=O)N[C@@H](CC(C)C)C(=O)N[C@@H](CC(C)C)C(=O)N[C@@H](CC(=O)O)C(=O)N[C@@H](CCCCN)C(=O)N[C@@H](CCCCNC(=O)COCCOCCNC(=O)COCCOCCNC(=O)CC[C@H](NC(=O)CCCCCCCCCCCCCCCCC(=O)O)C(=O)O)C(=O)N[C@@H](C)C(=O)N[C@@H](CCC(N)=O)C(=O)NC(C)(C)C(=O)N[C@@H](CCC(=O)O)C(=O)N[C@@H](Cc1ccccc1)C(=O)N[C@H](C(=O)N[C@@H](CCC(N)=O)C(=O)N[C@@H](Cc1c[nH]c2ccccc12)C(=O)N[C@@H](CC(C)C)C(=O)N[C@@H](CC(C)C)C(=O)N[C@@H](C)C(=O)NCC(=O)NCC(=O)N1CCC[C@H]1C(=O)N[C@@H](CO)C(=O)N[C@@H](CO)C(=O)NCC(=O)N[C@@H](C)C(=O)N1CCC[C@H]1C(=O)N1CCC[C@H]1C(=O)N1CCC[C@H]1C(=O)N[C@@H](CO)C(N)=O)C(C)C [Example 27] (H-Y[dA]EGTFISDYSILLDKK([AEEA-AEEA-γGlu-C18 diacid])AQ[Aib]EFVQWLLAGGPSSGAPPPS-NH2)
Ki (human GcgR): 401 nM
Ki (human GIPR): 0.0354 nM

CC[C@H](C)[C@H](NC(=O)[C@H](Cc1ccccc1)NC(=O)[C@@H](NC(=O)CNC(=O)[C@H](CCC(=O)O)NC(=O)C(C)(C)NC(=O)[C@@H](N)Cc1ccc(O)cc1)[C@@H](C)O)C(=O)N[C@@H](CO)C(=O)N[C@@H](CC(=O)O)C(=O)N[C@@H](Cc1ccc(O)cc1)C(=O)N[C@@H](CO)C(=O)N[C@H](C(=O)N[C@@](C)(CC(C)C)C(=O)N[C@@H](CC(C)C)C(=O)N[C@@H](CC(=O)O)C(=O)N[C@@H](CCCCN)C(=O)N[C@@H](CCCCNC(=O)COCCOCCNC(=O)COCCOCCNC(=O)CC[C@H](NC(=O)CCCCCCCCCCCCCCCCCCC(=O)O)C(=O)O)C(=O)N[C@@H](Cc1c[nH]cn1)C(=O)N[C@@H](CCC(N)=O)C(=O)NC(C)(C)C(=O)N[C@@H](CC(=O)O)C(=O)N[C@@H](Cc1ccccc1)C(=O)N[C@H](C(=O)N[C@@H](CCC(=O)O)C(=O)N[C@@](C)(Cc1ccc(O)cc1)C(=O)N[C@@H](CC(C)C)C(=O)N[C@@H](CC(C)C)C(=O)N[C@@H](CCC(=O)O)C(=O)N[C@@H](C)C(=O)NCC(=O)N1CCC[C@H]1C(=O)N[C@@H](CO)C(=O)N[C@@H](CO)C(=O)NCC(=O)N[C@@H](C)C(=O)N1CCC[C@H]1C(=O)N1CCC[C@H]1C(=O)N1CCC[C@H]1C(=O)N[C@@H](CO)C(N)=O)C(C)C)[C@@H](C)CC [Example 90] (H-Y[Aib]EGTFISDYSI[αMeL]LDKK([AEEA-AEEA-γGlu-C20 diacid])HQ[Aib]DFVE[αMeY]LLEAGPSSGAPPPS-NH2)
Ki (human GcgR): 112 nM
Ki (human GIPR): 0.129 nM

CC[C@H](C)[C@H](NC(=O)[C@H](CO)NC(=O)[C@H](Cc1ccc(O)cc1)NC(=O)[C@H](CC(=O)O)NC(=O)[C@H](CO)NC(=O)[C@@H](NC(=O)[C@](C)(Cc1ccccc1F)NC(=O)[C@@H](NC(=O)CNC(=O)[C@H](CCC(=O)O)NC(=O)C(C)(C)NC(=O)[C@@H](N)Cc1ccc(O)cc1)[C@@H](C)O)[C@@H](C)CC)C(=O)N[C@@H](C)C(=O)N[C@@H](CC(C)C)C(=O)N[C@@H](CC(=O)O)C(=O)N[C@@H](CCCCN)C(=O)N[C@@H](CCCCNC(=O)COCCOCCNC(=O)COCCOCCNC(=O)CC[C@H](NC(=O)CCCCCCCCCCCCCCCCCCC(=O)O)C(=O)O)C(=O)N[C@@H](Cc1c[nH]cn1)C(=O)N[C@@H](CCC(N)=O)C(=O)NC(C)(C)C(=O)N[C@@H](CCC(=O)O)C(=O)N[C@@H](Cc1ccccc1)C(=O)N[C@H](C(=O)N[C@@H](CC(N)=O)C(=O)N[C@@H](Cc1c[nH]c2ccccc12)C(=O)N[C@@H](CC(C)C)C(=O)N[C@@H](CC(C)C)C(=O)N[C@@H](C)C(=O)NCC(=O)NCC(=O)N1CCC[C@H]1C(=O)N[C@@H](CO)C(=O)N[C@@H](CO)C(=O)NCC(=O)N[C@@H](C)C(=O)N1CCC[C@H]1C(=O)N1CCC[C@H]1C(=O)N1CCC[C@H]1C(=O)N[C@@H](CO)C(N)=O)C(C)C [Example 26] (H-Y[Aib]EGT[αMePhe(2-F)]ISDYSIALDKK([AEEA-AEEA-γGlu-C20 diacid])HQ[Aib]EFVNWLLAGGPSSGAPPPS-NH2)
Ki (human GcgR): 74.1 nM
Ki (human GIPR): 0.045 nM

CC[C@H](C)[C@H](NC(=O)[C@H](CCCN)NC(=O)[C@H](CC(=O)O)NC(=O)[C@H](CC(C)C)NC(=O)[C@](C)(CC(C)C)NC(=O)[C@@H](NC(=O)[C@H](CO)NC(=O)[C@H](Cc1ccc(O)cc1)NC(=O)[C@H](CC(=O)O)NC(=O)[C@H](CO)NC(=O)[C@@H](NC(=O)[C@H](Cc1ccccc1)NC(=O)[C@@H](NC(=O)CNC(=O)[C@H](CCC(=O)O)NC(=O)C(C)(C)NC(=O)[C@@H](N)Cc1ccc(O)cc1)[C@@H](C)O)[C@@H](C)CC)[C@@H](C)CC)C(=O)N[C@@H](Cc1c[nH]cn1)C(=O)N[C@@H](CCC(N)=O)C(=O)NC(C)(C)C(=O)N[C@@H](CCC(=O)O)C(=O)N[C@@H](Cc1ccccc1)C(=O)N[C@H](C(=O)N[C@@H](CCC(=O)O)C(=O)N[C@@H](Cc1ccc(O)cc1)C(=O)N[C@@H](CCCCNC(=O)COCCOCCNC(=O)COCCOCCNC(=O)CC[C@H](NC(=O)CCCCCCCCCCCCCCCCCCC(=O)O)C(=O)O)C(=O)N[C@@H](CC(C)C)C(=O)N[C@@H](CCC(=O)O)C(=O)N[C@H](C(=O)NCC(=O)N1CCC[C@H]1C(=O)N[C@@H](CO)C(=O)N[C@@H](CO)C(=O)NCC(=O)N[C@@H](C)C(=O)N1CCC[C@H]1C(=O)N1CCC[C@H]1C(=O)N1CCC[C@H]1C(=O)N[C@@H](CO)C(N)=O)[C@@H](C)O)C(C)C [Example 105] (H-Y[Aib]EGTFISDYSI[αMeL]LD[Orn]IHQ[Aib]EFVEYK([AEEA-AEEA-γGlu-C20 diacid])LETGPSSGAPPPS-NH2)
Ki (human GcgR): > 960 nM
Ki (human GIPR): 0.174 nM

CC[C@H](C)[C@H](NC(=O)[C@H](CO)NC(=O)[C@H](Cc1ccc(O)cc1)NC(=O)[C@H](CC(=O)O)NC(=O)[C@H](CO)NC(=O)[C@@H](NC(=O)[C@](C)(Cc1ccccc1F)NC(=O)[C@@H](NC(=O)CNC(=O)[C@H](CCC(=O)O)NC(=O)C(C)(C)NC(=O)[C@@H](N)Cc1ccc(O)cc1)[C@@H](C)O)[C@@H](C)CC)C(=O)N[C@@H](C)C(=O)N[C@@H](CC(C)C)C(=O)N[C@@H](CC(=O)O)C(=O)N[C@@H](CCCCN)C(=O)N[C@H](C(=O)N[C@@H](Cc1c[nH]cn1)C(=O)N[C@@H](CCC(N)=O)C(=O)NC(C)(C)C(=O)N[C@@H](CC(=O)O)C(=O)N[C@@H](Cc1ccccc1)C(=O)N[C@H](C(=O)N[C@@H](CCC(=O)O)C(=O)N[C@@H](Cc1ccncc1)C(=O)N[C@@H](CCCCNC(=O)COCCOCCNC(=O)COCCOCCNC(=O)CC[C@H](NC(=O)CCCCCCCCCCCCCCCCCCC(=O)O)C(=O)O)C(=O)N[C@@H](CC(C)C)C(=O)N[C@@H](CCC(=O)O)C(=O)NCC(=O)NCC(=O)N1CCC[C@H]1C(=O)N[C@@H](CO)C(=O)N[C@@H](CO)C(=O)NCC(=O)N[C@@H](C)C(=O)N1CCC[C@H]1C(=O)N1CCC[C@H]1C(=O)N1CCC[C@H]1C(=O)N[C@@H](CO)C(N)=O)C(C)C)[C@@H](C)CC [Example 112] (H-Y[Aib]EGT[αMePhe(2-F)]ISDYSIALDKIHQ[Aib]DFVE[4Pal]K([AEEA-AEEA-γGlu-C20 diacid])LEGGPSSGAPPPS-NH2)
Ki (human GcgR): 257 nM
Ki (human GIPR): 0.0742 nM
